From patent US20130295154A1, “POLY(METH)ACRYLATE BASED MICROCAPSULES COMPRISING PHEROMONE” (BASF SE, priority 2011, published 2013)

Test system: male codling moths
Test: Wind tunnel test, behavioral responses of male codling moths
Format: in vivo, Cydia pomonella (codling moth)
[1] = Example 6, mean percentage, 100000 μg alone
[2] = Example 5, 100 μg alone, initial values
[3] = Example 6, mean percentage, 100 μg alone

Row | Compound | Oriented Flight of Males [1] | Source Contact of Males [1] | Upwind Response of Males [1] | Oriented Flight of Males [2] | Source Contact of Males [2] | Upwind Response of Males [2] | Oriented Flight of Males [3] | Source Contact of Males [3] | Upwind Response of Males [3]
1 | CC(C)=CCC/C(C)=C/CC/C(C)=C/CO [E,E-farnesol] | 0% | 0% | 25% |  |  |  |  |  | 
2 | CCCCCOC(C)=O [amyl acetate] | 5% | 0% | 30% |  |  |  |  |  | 
3 | C/C=C/C=C/CCCCCCCO [codlemone, (E,E)-8,10-dodecadien-1-ol] |  |  |  | 55 | 40 | 60 | 60% | 50% | 70%
4 | CCCCCCCCCCCCO [dodecanol] | 0% | 0% | 20% |  |  |  |  |  | 
5 | CCOC(=O)CC(C)C [ethyl isovalerate, ethyl 3-methylbutanoate] | 10% | 0% | 30% |  |  |  |  |  | 
6 | COC(=O)c1ccccc1O [methyl salicylate] | 0% | 0% | 25% |  |  |  |  |  | 
7 | CCCCC/C=C\C=C\C(=O)OCC [pear ester, ethyl (2E,4Z)-decadienoate] | 0% | 0% | 27% |  |  |  |  |  | 
